This is an account of results in publication PMC1802613 (Nucleic Acids Research, 2006).

SMILES strings stand for the structures.

This test has as its target M-PMV NC-dUTPase (Mason-Pfizer monkey virus, UniProt P07570). Put plainly: isothermal titration calorimetry. Format: binding.

M-PMV NC-dUTPase, sequence (P07570 526-759): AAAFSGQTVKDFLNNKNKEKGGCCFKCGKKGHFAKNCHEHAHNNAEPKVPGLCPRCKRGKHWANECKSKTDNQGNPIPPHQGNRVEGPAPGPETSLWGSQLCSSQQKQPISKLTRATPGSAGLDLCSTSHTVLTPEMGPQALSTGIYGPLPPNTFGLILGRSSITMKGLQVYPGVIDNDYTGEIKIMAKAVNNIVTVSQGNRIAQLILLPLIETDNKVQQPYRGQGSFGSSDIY

`O=c1ccn([C@H]2C[C@H](O)[C@@H](COP(=O)(O)NP(=O)(O)OP(=O)(O)O)O2)c(=O)[nH]1` [α,β-imino dUTP] yielded a Kd of 1.2 ± 0.02 µM.
